Data as given in ChEMBL document CHEMBL1137697, “In vitro and in vivo antitrypanosomatid activity of 5-nitroindazoles” (Eur J Med Chem, 2009).
Activity calls are given as the source filed them. No cut-off for these calls is given here.

Tests used:
J774 [1] = assay: Cytotoxicity in mouse J774 cells at 100 ug/mL after 48 hrs; format: cell-based; conditions: j774, 48 h
Trypanosoma cruzi [2] = assay: Antitrypanosomal activity against Trypanosoma cruzi bloodstream trypomastigote in mouse blood assessed as lysis of trypomastigotes at 250 ug/mL after 24 hrs relative to control; format: functional
J774 [3] = assay: Cytotoxicity in mouse J774 cells at 100 ug/mL after 24 hrs; format: cell-based; conditions: j774, 24 h
Trypanosoma cruzi [4] = assay: Antitrypanosomal activity against Trypanosoma cruzi bloodstream trypomastigote in mouse blood after 24 hrs relative to control; format: functional, organism-based
Leishmania infantum = assay: Antileishmanial activity against Leishmania infantum MHOM/FR/91/LEM2259 promastigote assessed as lysis at 100 ug/mL after 72 hrs; format: functional
Trypanosoma cruzi [5] = assay: Inhibition of respiration in Trypanosoma cruzi Tulahuen 2 assessed as oxygen uptake at 0.091 mM; format: functional; design: scale not given: the % may be the effect or the level left
Trypanosoma cruzi [6] = assay: Inhibition of respiration in Trypanosoma cruzi Tulahuen 2 assessed as oxygen uptake at 0.172 mM; format: functional; design: scale not given: the % may be the effect or the level left
Leishmania braziliensis = assay: Antileishmanial activity against Leishmania braziliensis MHOM/BR/75/M2903 promastigote assessed as lysis at 100 ug/mL after 72 hrs; format: functional
Trypanosoma cruzi [7] = assay: Inhibition of respiration in Trypanosoma cruzi Tulahuen 2 assessed as oxygen uptake at 0.272 mM; format: functional; design: scale not given: the % may be the effect or the level left
Leishmania amazonensis = assay: Antileishmanial activity against Leishmania amazonensis MHOM/BR/PH8 promastigote assessed as lysis at 100 ug/mL after 72 hrs; format: functional
Trypanosoma cruzi [8] = assay: Inhibition of respiration in Trypanosoma cruzi Tulahuen 2 assessed as oxygen uptake at 0.258 mM; format: functional; design: scale not given: the % may be the effect or the level left
Trypanosoma cruzi [9] = assay: Inhibition of respiration in Trypanosoma cruzi Tulahuen 2 assessed as oxygen uptake at 1.030 mM; format: functional; design: scale not given: the % may be the effect or the level left
Trypanosoma cruzi [10] = assay: Inhibition of respiration in Trypanosoma cruzi Tulahuen 2 assessed as oxygen uptake at 0.515 mM; format: functional; design: scale not given: the % may be the effect or the level left
Trypanosoma cruzi [11] = assay: Antitrypanosomal activity against Trypanosoma cruzi bloodstream trypomastigote infected in BALB/c mouse assessed as antibodies at 30 mg/kg, po after 60 days by colorimetric method; format: functional, organism-based; design: dose 30 mg/kg
[12] = Toxicity in BALB/c mouse assessed as survival fraction at 30 mg/kg, po after 9 weeks; format: organism-based; design: dose 30 mg/kg, route oral; conditions: in vivo
Trypanosoma cruzi [13] = assay: Antitrypanosomal activity against Trypanosoma cruzi bloodstream trypomastigote infected in BALB/c mouse assessed as parasitemia at 30 mg/kg, po after 60 days by colorimetric method; format: functional, organism-based; design: dose 30 mg/kg
Trypanosoma cruzi [14] = assay: Inhibition of respiration in Trypanosoma cruzi Tulahuen 2 assessed as oxygen uptake at 1.032 mM; format: functional; design: scale not given: the % may be the effect or the level left
Trypanosoma cruzi [15] = assay: Inhibition of respiration in Trypanosoma cruzi Tulahuen 2 assessed as oxygen uptake at 0.543 mM; format: functional; design: scale not given: the % may be the effect or the level left
Trypanosoma cruzi [16] = assay: Inhibition of respiration in Trypanosoma cruzi Tulahuen 2 assessed as oxygen uptake at 0.362 mM; format: functional; design: scale not given: the % may be the effect or the level left
Trypanosoma cruzi [17] = assay: Inhibition of respiration in Trypanosoma cruzi Tulahuen 2 assessed as oxygen uptake at 0.181 mM; format: functional; design: scale not given: the % may be the effect or the level left
Trypanosoma cruzi [18] = assay: Inhibition of respiration in Trypanosoma cruzi Tulahuen 2 assessed as oxygen uptake at 0.724 mM; format: functional; design: scale not given: the % may be the effect or the level left
Trypanosoma cruzi [19] = assay: Inhibition of respiration in Trypanosoma cruzi Tulahuen 2 assessed as oxygen uptake; format: functional, organism-based
Trypanosoma cruzi [20] = assay: Inhibition of respiration in Trypanosoma cruzi Tulahuen 2 assessed as oxygen uptake at 0.426 mM; format: functional; design: scale not given: the % may be the effect or the level left
[21] = Toxicity in BALB/c mouse assessed as survival fraction at 50 mg/kg, po after 9 weeks; format: organism-based; design: dose 50 mg/kg, route oral; conditions: in vivo
Trypanosoma cruzi [22] = assay: Antitrypanosomal activity against Trypanosoma cruzi bloodstream trypomastigote infected in BALB/c mouse assessed as parasitemia at 50 mg/kg, po after 60 days by colorimetric method; format: functional, organism-based; design: dose 50 mg/kg
Trypanosoma cruzi [23] = assay: Antitrypanosomal activity against Trypanosoma cruzi bloodstream trypomastigote infected in BALB/c mouse assessed as antibodies at 50 mg/kg, po after 60 days by colorimetric method; format: functional, organism-based; design: dose 50 mg/kg
Trypanosoma cruzi [24] = assay: Inhibition of respiration in Trypanosoma cruzi Tulahuen 2 assessed as oxygen uptake at 0.325 mM; format: functional; design: scale not given: the % may be the effect or the level left
Trypanosoma cruzi [25] = assay: Inhibition of respiration in Trypanosoma cruzi Tulahuen 2 assessed as oxygen uptake at 0.467 mM; format: functional; design: scale not given: the % may be the effect or the level left
Trypanosoma cruzi [26] = assay: Inhibition of respiration in Trypanosoma cruzi Tulahuen 2 assessed as oxygen uptake at 0.622 mM; format: functional; design: scale not given: the % may be the effect or the level left
Trypanosoma cruzi [27] = assay: Inhibition of respiration in Trypanosoma cruzi Tulahuen 2 assessed as oxygen uptake at 0.156 mM; format: functional; design: scale not given: the % may be the effect or the level left

Row | Compound | Activity (J774 [1]) | Activity (Trypanosoma cruzi [2]) [%] | Activity (J774 [3]) | IC50 (Trypanosoma cruzi [4]) [µM] | Activity (Leishmania infantum) [%] | Activity (Leishmania braziliensis) [%] | Activity (Leishmania amazonensis) [%] | also measured
1 | CN(C)CCOCCn1nc(O)c2cc([N+](=O)[O-])ccc21 | Non-toxic | 18 | Non-toxic |  |  |  |  | 
2 | COc1nn(CCOCCN(C)C)c2ccc([N+](=O)[O-])cc12.Cl | Non-toxic | 77 | Non-toxic |  |  |  |  | 
3 | O=[N+]([O-])c1ccc2c(c1)c(OCc1ccccc1)nn2CCCCCN1CCCCC1 | Toxic | 34 | Toxic | 6.6 | 100 | 100 | 100 | Activity (Trypanosoma cruzi [5]): 109%; Activity (Trypanosoma cruzi [6]): 111%; Activity (Trypanosoma cruzi [7]): 100%
4 | CN(C)Cc1ccccc1Cn1nc(O)c2cc([N+](=O)[O-])ccc21 | Non-toxic | 0 | Non-toxic |  |  |  |  | 
5 | COc1nn(CCOCCN2CCCCC2)c2ccc([N+](=O)[O-])cc12.Cl | Non-toxic | 85 | Non-toxic | > 50 | <60 | <60 | <60 | Activity (Trypanosoma cruzi [8]): 118%; Activity (Trypanosoma cruzi [9]): 155%; Activity (Trypanosoma cruzi [10]): 130%; Activity (Trypanosoma cruzi [11]): Active; survival at 1512 h [12]: 87.5%; Activity (Trypanosoma cruzi [13]): Active
6 | CN(C)CCCCCn1nc(O)c2cc([N+](=O)[O-])ccc21 | Non-toxic | 29 | Non-toxic |  |  |  |  | 
7 | O=[N+]([O-])c1ccc2c(c1)c(O)nn2Cc1ccccc1CN1CCCCC1 | Non-toxic | 75 | Non-toxic | > 50 | <60 | <60 | <60 | Activity (Trypanosoma cruzi [14]): 109%
8 | O=[N+]([O-])c1ccc2c(c1)c(O)nn2CCOCCN1CCCCC1 | Non-toxic | 53 | Non-toxic |  |  |  |  | 
9 | COc1nn(CCCCCN2CCCCC2)c2ccc([N+](=O)[O-])cc12.Cl | Toxic | 100 | Toxic |  | <60 | <60 | <60 | 
10 | CN(C)CCOCCn1nc(OCc2ccccc2)c2cc([N+](=O)[O-])ccc21 | Non-toxic | 87 | Non-toxic | 16.4 | 100 | 100 | 100 | Activity (Trypanosoma cruzi [15]): 11%; Activity (Trypanosoma cruzi [16]): 10%; Activity (Trypanosoma cruzi [17]): 66%; Activity (Trypanosoma cruzi [18]): 9%; Activity (Trypanosoma cruzi [11]): Active; survival at 1512 h [12]: 87.5%; Activity (Trypanosoma cruzi [19]): Dose-dependent effect; Activity (Trypanosoma cruzi [20]): 10%; Activity (Trypanosoma cruzi [13]): Active
11 | O=[N+]([O-])c1ccc2c(c1)c(OCc1ccccc1)nn2CCOCCN1CCCCC1 | Non-toxic | 44 | Non-toxic |  |  |  |  | 
12 | O=C(Cn1ccnc1[N+](=O)[O-])NCc1ccccc1 [BENZNIDAZOLE] |  |  |  |  |  |  |  | survival at 1512 h [21]: 60%; Activity (Trypanosoma cruzi [22]): Active; Activity (Trypanosoma cruzi [23]): Active
13 | O=[N+]([O-])c1ccc2c(c1)c(O)nn2CCCCCN1CCCCC1 | Non-toxic | 36 | Non-toxic |  | <60 | <60 | <60 | 
14 | N=C(N)c1ccc(OCCCCCOc2ccc(C(=N)N)cc2)cc1 [PENTAMIDINE] |  |  |  |  | 100 | 100 | 100 | 
15 | CN(C)CCCCCn1nc(OCc2ccccc2)c2cc([N+](=O)[O-])ccc21 | Toxic | 100 | Toxic | 12.5 |  |  |  | Activity (Trypanosoma cruzi [24]): 12%; Activity (Trypanosoma cruzi [25]): 11%; Activity (Trypanosoma cruzi [26]): 7%; Activity (Trypanosoma cruzi [27]): 99%; Activity (Trypanosoma cruzi [19]): Dose-dependent effect
16 | CN(C)c1ccc(C(=C2C=CC(=[N+](C)C)C=C2)c2ccc(N(C)C)cc2)cc1.[Cl-] [GENTIAN VIOLET] |  | 100 |  |  |  |  |  | 
